Where two headings read alike, the source gives them in different places.

Results on four compounds are retold here after PMC10709440, “High-throughput ligand profile characterization in novel cell lines expressing seven heterologous insect olfactory receptors for the detection of volatile plant biomarkers” (Scientific Reports, 2023).

In assay [1] the target is T1, Drosophila OR98a (Drosophila melanogaster, UniProt Q9VAZ3).
T1 construct: expressed in transfected cells
T1 sequence (Q9VAZ3 1-397): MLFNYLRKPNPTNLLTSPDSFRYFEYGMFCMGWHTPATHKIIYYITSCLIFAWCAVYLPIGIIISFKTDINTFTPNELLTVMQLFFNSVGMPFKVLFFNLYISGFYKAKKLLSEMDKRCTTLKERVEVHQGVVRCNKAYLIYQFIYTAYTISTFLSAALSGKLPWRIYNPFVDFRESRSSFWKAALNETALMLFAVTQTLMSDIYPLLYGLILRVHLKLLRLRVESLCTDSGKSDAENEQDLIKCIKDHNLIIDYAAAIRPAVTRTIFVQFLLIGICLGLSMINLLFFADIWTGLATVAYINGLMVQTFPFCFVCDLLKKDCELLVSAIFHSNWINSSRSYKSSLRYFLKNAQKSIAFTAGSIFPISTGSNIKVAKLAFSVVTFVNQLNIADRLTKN
T1 sequence (Q9VNB5 1-486 partner): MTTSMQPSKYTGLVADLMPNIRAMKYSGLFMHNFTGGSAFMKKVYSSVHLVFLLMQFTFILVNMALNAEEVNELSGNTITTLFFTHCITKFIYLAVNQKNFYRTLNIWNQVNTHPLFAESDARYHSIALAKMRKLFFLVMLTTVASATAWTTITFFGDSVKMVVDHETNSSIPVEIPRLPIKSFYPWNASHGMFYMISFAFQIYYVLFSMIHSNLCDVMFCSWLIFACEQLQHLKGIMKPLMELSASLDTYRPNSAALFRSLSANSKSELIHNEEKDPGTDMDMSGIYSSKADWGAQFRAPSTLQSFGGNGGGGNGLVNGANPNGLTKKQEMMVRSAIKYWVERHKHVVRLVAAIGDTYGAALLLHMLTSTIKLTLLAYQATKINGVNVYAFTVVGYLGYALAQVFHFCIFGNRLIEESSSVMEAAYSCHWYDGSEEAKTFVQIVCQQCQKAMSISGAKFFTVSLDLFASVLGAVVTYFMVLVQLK
Briefly: Calcium ion fluorescence (GCaMP6) assay, OR98a stable HEK293 cell line. It counts as cell-based. The procedure, abridged: (§1)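 Responses are VUAA1-normalized ΔF: each VOC-evoked calcium signal, (FMAX−F0)/F0 over 30 s after injection, divided by the same line's mean 50 µM VUAA1 response. Cells were doxycycline-induced HEK293 with GCaMP6 and the cognate Drosophila OR, in HEPES buffer pH 7.3; ligands tested 0.01–100 μM.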

Assay [2] has as its target T2, Drosophila OR71a (Drosophila melanogaster, UniProt Q9VUK5).
T2 construct: expressed in transfected cells
T2 sequence (Q9VUK5 1-378): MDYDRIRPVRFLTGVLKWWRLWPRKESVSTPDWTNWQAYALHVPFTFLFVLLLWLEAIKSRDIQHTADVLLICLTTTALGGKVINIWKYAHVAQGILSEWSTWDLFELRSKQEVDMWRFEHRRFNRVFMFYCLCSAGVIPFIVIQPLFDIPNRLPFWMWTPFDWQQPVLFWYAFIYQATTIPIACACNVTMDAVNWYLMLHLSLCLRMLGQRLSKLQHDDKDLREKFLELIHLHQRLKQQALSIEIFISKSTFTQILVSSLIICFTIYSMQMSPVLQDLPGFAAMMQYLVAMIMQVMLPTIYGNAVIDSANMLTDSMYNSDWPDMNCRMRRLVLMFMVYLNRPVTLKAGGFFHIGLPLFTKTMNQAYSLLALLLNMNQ
T2 sequence (Q9VNB5 1-486 partner): T1 sequence (Q9VNB5 1-486 partner)
Briefly: Calcium ion fluorescence (GCaMP6) assay, OR71a stable HEK293 cell line. It counts as cell-based. Conditions: for activation at 1 µM / activation at 10 µM / activation at 100 µM: HEK293, read-out: OR71a response (VUAA1-normalized response); for Average response: VUAA1-normalized response, mean of biological replicates. The procedure, abridged: as §1

The mark [3] stands for this setting: HEK293, read-out: Average response.
Where [4] appears, read: HEK293, read-out: OR98a Average response (VUAA1-normalized).
Setting [5] is: HEK293, read-out: OR98a response (VUAA1-normalized response).
Setting [6] is: concentration 1, normalized fluorescence change, values below 0.05 threshold given as 0.
[7] abbreviates: concentration 10, normalized fluorescence change, values below 0.05 threshold given as 0.
Where [8] appears, read: concentration 100, normalized fluorescence change, values below 0.05 threshold given as 0.
The mark [9] stands for this setting: ligand concentration 1 (unit not given), 0.05 threshold, values below shown as 0.
[10] abbreviates: ligand concentration 10 (unit not given), 0.05 threshold, values below shown as 0.
The mark [11] stands for this setting: ligand concentration 100 (unit not given), 0.05 threshold, values below shown as 0.

Turning to `CCCCC(C)O` (stereo not drawn) [2-hexanol], the activation at 1 µM in assay [1] (setting [3]), in assay [1] (setting [4]), in assay [1] (setting [5]) and in assay [2] was 0% throughout. Moreover, the activation at 10 µM in assay [1] (setting [3]), in assay [1] (setting [4]), in assay [1] (setting [5]) and in assay [2] was 0% throughout. The activation at 100 µM is 14% in assay [1] (setting [3]), 14% in assay [1] (setting [4]), 14% in assay [1] (setting [5]) and 0% in assay [2]. The “DF norm AVERAGE OR98a” value in assay [1] (setting [6]) was 0; in assay [1] (setting [7]) it was 0; in assay [1] (setting [8]) it was 0.1401. Also, the Average response in assay [2] (OR71a cell line, cc. 1 µM) amounted to 0.00; in assay [2] (OR71a cell line, cc. 10 µM), 0.00; in assay [2] (OR71a cell line, cc. 100 µM), 0.0351. Moreover, the “DF norm AVERAGE OR71a” value in assay [2] (setting [6]), in assay [2] (setting [7]) and in assay [2] (setting [8]) was 0 each time.

As to `Cc1ccc(O)cc1` [4-methylphenol], the activation at 1 µM in assay [1] (setting [3]), in assay [1] (setting [5]) and in assay [2] was 0% each time. The results for the activation at 10 µM in assay [1] (setting [3]), in assay [1] (setting [5]) and in assay [2] were 2%, 0% and 0%, respectively. In addition, the activation at 100 µM in assay [1] (setting [3]) was found to be 2.76%; in assay [1] (setting [5]), 0%; in assay [2], 0%. The “DF norm AVERAGE OR98a” value in assay [1] (setting [6]), in assay [1] (setting [7]) and in assay [1] (setting [8]) was 0 in each case. The Average response in assay [2] (OR71a cell line, cc. 1 µM) is on record as 0.00; in assay [2] (OR71a cell line, cc. 10 µM), 0.00; in assay [2] (OR71a cell line, cc. 100 µM) it was 0.00. Further, the “DF norm AVERAGE OR71a” value in assay [2] (setting [6]), in assay [2] (setting [7]) and in assay [2] (setting [8]) was 0 throughout.

For `CC1=CCC23CC1C(C)(C)C2CCC3C` (stereo not drawn) [α-funebrene], the activation at 1 µM in assay [1] (setting [3]) was found to be 0%. Besides, in assay [1] (setting [3]), the activation at 10 µM stood at 9%. In assay [1] (setting [3]), the activation at 100 µM was found to be 5%. Also, in assay [1] (OR98a cell line, VOC concentration 1 μM), the “OR98a response (VUAA1-normalized) at 1 μM” value was determined as 0.00. Moreover, in assay [1] (OR98a cell line, VOC concentration 10 μM), the “OR98a response (VUAA1-normalized) at 10 μM” value turned out to be 0.09. In assay [1] (OR98a cell line, VOC concentration 100 μM), the “OR98a response (VUAA1-normalized) at 100 μM” value turned out to be 0.05. The figures for the “DF norm AVERAGE OR98a” value in assay [1] (setting [9]), in assay [1] (setting [10]) and in assay [1] (setting [11]) were 0, 0.08582 and 0.05199, respectively. Moreover, the “OR71a response (VUAA1-normalized) at 1 μM” value in assay [2] (OR71a cell line, VOC concentration 1 μM) came out at 0.00. For the same compound, the “OR71a response (VUAA1-normalized) at 10 μM” value in assay [2] (OR71a cell line, VOC concentration 10 μM) is given as 0.00. Besides, the “OR71a response (VUAA1-normalized) at 100 μM” value in assay [2] (OR71a cell line, VOC concentration 100 μM) amounted to 0.00. The Average response in assay [2] (OR71a cell line, cc. 1 µM) came to 0.00; in assay [2] (OR71a cell line, cc. 10 µM), 0.00; in assay [2] (OR71a cell line, cc. 100 µM), 0.00. Further, the “DF norm AVERAGE OR71a” value in assay [2] (setting [9]), in assay [2] (setting [10]) and in assay [2] (setting [11]) was 0 throughout.

As for `CCCCCCCCC(CO)CCCCCC` (stereo not drawn) [2-hexyl-1-decanol], the activation at 1 µM in assay [1] (setting [3]), in assay [1] (setting [5]) and in assay [2] was 0% each time. In addition, the activation at 10 µM came to 14% in assay [1] (setting [3]), 14% in assay [1] (setting [5]) and 0% in assay [2]. Besides, the activation at 100 µM is 2% in assay [1] (setting [3]), 0% in assay [1] (setting [5]) and 0% in assay [2]. Moreover, the figures for the “DF norm AVERAGE OR98a” value in assay [1] (setting [6]), in assay [1] (setting [7]) and in assay [1] (setting [8]) were 0, 0.1367 and 0, respectively. In addition, the Average response in assay [2] (OR71a cell line, cc. 1 µM) is on record as 0.00; in assay [2] (OR71a cell line, cc. 10 µM), 0.00; in assay [2] (OR71a cell line, cc. 100 µM), 0.00. Also, the “DF norm AVERAGE OR71a” value in assay [2] (setting [6]), in assay [2] (setting [7]) and in assay [2] (setting [8]) was 0 in each case.
